# Square brackets hold non-standard residues; d marks the D form. Peptide text beside a SMILES is read from it. Cya = N[C@@H](CS(=O)(=O)O)C(=O)O
# Test system: dog heart failure model
# Test: Dog heart failure model (coronary microembolization), ventriculographic and hemodynamic measurements
# Type: in vivo
# Settings: for Left Ventricle Ejection Fraction: n = 3, pretreatment 32; for Cardiac Output, Δ vs pretreatment / Left Ventricle Ejection Fraction, Δ vs pretreatment / Stroke Volume, Δ vs pretreatment / Cardiac Output / Mean Pulmonary Artery Wedge Pressure / L V End Diastolic Pressure / Mean Pulmonary Artery Pressure / Stroke Volume / L V End Systolic Volume / L V End Diastolic Volume / Mean Aortic Pressure / Heart Rate / Systemic Vascular Resistance / L V Peak + dP/dt: post 3rd inj.; for Cardiac Output: pretreatment 1.81; for Mean Pulmonary Artery Wedge Pressure: pretreatment 9.3; for L V End Diastolic Pressure: pretreatment 13; for Mean Pulmonary Artery Pressure: pretreatment 17; for Stroke Volume: pretreatment 21; for L V End Systolic Volume: pretreatment 43; for L V End Diastolic Volume: pretreatment 64; for Mean Aortic Pressure: pretreatment 75; for Heart Rate: pretreatment 88; for Systemic Vascular Resistance: pretreatment 3391
# Description: An initial study was conducted to assess the effects of Risuteganib administered intravenously at doses of 1.0 mg/kg and 5.0 mg/kg in a dog heart failure model. The subject animals underwent coronary microembolization to induce heart failure as described in Sabbah, H., et al.; Chronic Therapy with Elamipretide (MTP-131), a Novel Mitochondria-Targeting Peptide, Improves Left Ventricular and Mitochondrial Function in Dogs with Advanced Heart Failure; Circ Heart Fail. 2016 February; 9(2): e002206. doi:10.1161/CIRCHEARTFAILURE.115.002206.
# Three (3) dogs were received 1.0 mg/kg Risuteganib every 2 weeks for 6 weeks. After an intervening period of approximately one week, the same three (3) dogs then received 5.0 mg/kg Risuteganib every 2 weeks for 6 additional weeks. Ventriculographic and hemodynamic measurements were made prior to the first intravenous dose of Risuteganib, after the third biweekly 1.0 mg/kg intravenous dose of Risuteganib and again after the third biweekly 5.0 mg/kg intravenous dose of Risuteganib.
# [1] = 1.0 mg/kg IV q 2 weeks for 6 weeks
# [2] = 5.0 mg/kg IV q 2 weeks for 6 weeks
smiles,measurement,setting,value
"C[C@@H](O)[C@H](NC(=O)[C@H](CS(=O)(=O)O)NC(=O)CNC(=O)[C@H](CCCNC(=N)N)NC(=O)CN)C(=O)N1CCC[C@H]1C(=O)O [Risuteganib, Glycyl-L-arginylglycyl-3-sulfo-L-alanyl-L-threonyl-L-proline] (H-GRG[Cya]TP-OH)",Left Ventricle Ejection Fraction,"1.0 mg/kg IV q 2 weeks for 6 weeks, post 3rd 1.0 mg/kg IV inj.",37%
same,"Cardiac Output, Δ vs pretreatment",[1],Δ = +0.14 L/min
same,"Left Ventricle Ejection Fraction, Δ vs pretreatment",[1],Δ = +5%
same,"Stroke Volume, Δ vs pretreatment",[1],Δ = +2 mL
same,Cardiac Output,[1],1.95 L/min
same,Mean Pulmonary Artery Wedge Pressure,[1],9.0 mmHg
same,L V End Diastolic Pressure,[1],13 mmHg
same,Mean Pulmonary Artery Pressure,[1],16 mmHg
same,Stroke Volume,[1],23 mL
same,L V End Systolic Volume,[1],0.04 L
same,L V End Diastolic Volume,[1],0.063 L
same,Mean Aortic Pressure,[1],71 mmHg
same,Heart Rate,[1],86 beats/min
same,Systemic Vascular Resistance,[1],2954 dynes-sec-cm-5
same,Left Ventricle Ejection Fraction,"5.0 mg/kg IV q 2 weeks for 6 weeks, post 3rd 5.0 mg/kg IV inj.",41%
same,"Cardiac Output, Δ vs pretreatment",[2],Δ = +0.57 L/min
same,"Left Ventricle Ejection Fraction, Δ vs pretreatment",[2],Δ = +9%
same,"Stroke Volume, Δ vs pretreatment",[2],Δ = +5 mL
same,Cardiac Output,[2],2.38 L/min
same,Mean Pulmonary Artery Wedge Pressure,[2],9.0 mmHg
same,L V End Diastolic Pressure,[2],13 mmHg
same,Mean Pulmonary Artery Pressure,[2],16 mmHg
same,Stroke Volume,[2],27 mL
same,L V End Systolic Volume,[2],0.039 L
same,L V End Diastolic Volume,[2],0.067 L
same,Mean Aortic Pressure,[2],84 mmHg
same,Heart Rate,[2],87 beats/min
same,Systemic Vascular Resistance,[2],2924 dynes-sec-cm-5
same,L V Peak + dP/dt,"first line so headed (r26), 1.0 mg/kg IV q 2 weeks for 6 weeks, pretreatment 1241",1267 mmHg/sec
same,L V Peak + dP/dt,"first line so headed (r26), 5.0 mg/kg IV q 2 weeks for 6 weeks, pretreatment 1241",1288 mmHg/sec
same,cardiac function,"heart failure dogs, 1.0 mg/kg and 5.0 mg/kg intravenously",improved
same,L V Peak + dP/dt,"second line so headed (r29), 1.0 mg/kg IV q 2 weeks for 6 weeks, pretreatment 1509",1325 mmHg/sec
same,L V Peak + dP/dt,"second line so headed (r29), 5.0 mg/kg IV q 2 weeks for 6 weeks, pretreatment 1509",1338 mmHg/sec

# Source: patent US20210275624A1, “TREATMENTS FOR IMPROVING OR LESSENING IMPAIRMENT OF MITOCHONDRIAL FUNCTION” (priority 2020, published 2021)
